# In patent US7728105B2, “Peptides impairing PBX dependent gene regulation” (St. George's Hospital Medical School, priority 2002, dated 2010):
# Entries after “also recorded” stand apart in the source; their conditions may differ.
# Assays:
# Assay type in all cases: cell-based, human
# [1] = tested on: KG1a, HL60 and U937 leukaemic cell lines; experiment: RT-PCR of HOX/PBX target genes in leukaemic cell lines (Example 3)
# Description: Total RNA was isolated from liquid nitrogen snap-frozen cells using RNeasy Mini Kit protocol (Qiagen, Crawley, UK). 50 μl reverse transcription reactions using 1 μg of RNA per reaction heated at 75° C. cDNA with 1 μg of oligo-dT for 10 mins. Samples were cooled on ice and mixed with 200 units of M-MLV reverse transcriptase (Promega, Southampton, UK) in its associated buffer, 400 μM of dNTPs (Promega), and 40 units of RNAseout (Invitrogen, Paisley, UK). Samples were then incubated at 37° C. for one hour and finally heated at 75° C. for 5 mins. PCR reactions (35 cycles, 94° C. 30 sec, 55° C. 30 sec, 72° C. 1 min) were carried out in a 20 μl reaction using JumpStart ReadyMix REDTaq DNA polymerase (Sigma-Aldrich) using an identical amount of cDNA per reaction with 1 μM of forward and reverse primers.
# [2] = tested on: KG1a, HL60 and U937 cells; experiment: Cell cycle of leukaemic cell lines synchronised in G0-G1 with L-mimosine; settings: HL60 and U937 synchronised in G0-G1, over 48 hours, vs control peptide
# Description: The proportion of KG1a, HL60 and U937 cells in G0-G1 phase of the cell cycle upon HXP peptide treatment was compared to CXP4. Cells were synchronised in G0-G1 phase of the cell cycle by exposure to 0.5 mM L-mimosine. Results are expressed as the mean percentage of four experiments (+/−SE).
# KG1a, HL60 and U937 cell cycle profiles were analysed over 48 hours in culture with HXP peptide or the control peptide (FIG. 10). The effect of HXP peptide on non-synchronised cells varied considerably (data not shown).
# AC133+ cells = experiment: Short-term ex-vivo AC133+ cell expansion culture with HXP peptide, trypan blue cell count
# Description: Umbilical Cord Blood (UCB) specimens were collected from full-term deliveries scheduled for elective caesarian sections following hospital ethical regulations.
# Samples were diluted 1 in 4 in PBS supplemented with a citrate-based anti-coagulant (0.6% ACD-A, Baxter, France) and Bovine Serum Albumin (0.5% fraction V, Sigma Aldrich, UK) at pH=7.4 and referenced as “ACD-A buffer”. Diluted UCB was carefully overlaid in a 1:4 ratio onto a research grade Ficoll-Paque solution (d:1.077 g/cm^3, Pharmacia Biotech, Sweden) prior to Centrifugation (400 g, 30 minutes, 22° C.). The mononuclear cells (MNC) layer was extracted, washed twice in ACD-A Buffer, pelleted (400 g, 10 minutes) before resuspending in ACD-A buffer and cell aliquots taken for cell viability/enumeration using trypan blue (Sigma Aldrich).
# AC133+ cells were obtained from MNC after immunomagnetic separation using the AC133 mini-MACS selection kit (Miltenyi Biotec, Germany): labelling volume 500 μl/10^8 cells in ACD-A buffer containing Fc Receptor-blocking reagent (100 μl, 5 min incubation, 4° C.) before adding colloidal super-paramagnetic MACS MicroBeads conjugated to monoclonal mouse anti-human AC133/1 antibody (100 μl IgG1 isotype, 25 min incubation, 4° C.). Cells were then washed (5 ml ACD-A buffer, 400 g, 10 min, 4° C.) before resuspended cells in 500 μl ACD-A buffer were applied to a chilled MACS positive selection column (MS+/RS+) on a magnet. The column was rinsed with cool ACD-A buffer (4×500 μl) and the AC133− cell population retained at 4° C. After magnet removal AC133+ cells were eluted with 1 ml of cold ACD-A buffer. The AC133+ cell fraction was reapplied to a new column, prior to cell enumeration and viability assays.
# AC133+ cells were seeded in duplicate in liquid culture system at 2-4×10^4 cells/ml. […] Cultured cells were then counted at various time points using trypan blue exclusion method described above.
# KG1a cells = experiment: RT-PCR of stem/progenitor and maturation markers in KG1a cells; settings: 7 days of treatment
# Description: Total RNA was extracted from cultured human cells using the Rneasy mini kit (Quiagen) and following the manufacturer's instructions. 3 μg of RNA was used in subsequent reverse transcription reactions. The RNA was mixed with a poly T15 oligo to 5 microgrammes/ml and heated to 75° C. for 5 minutes. After cooling on ice, the following additional reagents were added; dNTPs to 0.4 mM, RNase OUT (Promega) to 1.6 U/μl, Moloney Murine Leukemia Virus Reverse Transcriptase (M-MLRvT) RnaseH— point mutant (Promega) to 8 U/μl and the appropriate buffer (supplied by the manufacturer) to x1 concentration. The mixture was incubated for one hour at 37° C., heated to 70° C. for two minutes and cooled on ice.
# PCR reactions were all performed in a total volume of 40 μl. For each we used 1 μl of the M-MLRvT reaction (as described above), 0.2 nmols of each primer and 20 microliters of Redimix pre-mixed PCR components (Sigma). All reactions were cycled at 94° C. for 30 seconds, 55° C. for 30 seconds and 72° C. for 60 seconds. 30 cycles were used for all primer sets except those for beta-actin, for which 23 cycles were used.
substance,measurement,setting,value
WYPWMKKHHRQIKIWFQNRRMKWKK [HXP peptide],MMP19 expression,[1]; KG1a,down-regulated
same,MMP1 expression,[1]; KG1a and U937 cells,down-regulated
same,CD38 gene expression,[1]; KG1a cell line,up-regulation
same,"CD133, CD34, HOXB4, B8 and A9 gene expression",[1]; KG1a cell line,down-regulation
same,expression of the other genes examined,"[1]; KG1a, HL60, U937, except CDC25, MMP1, MMP19 as stated",did not alter
same,CD38 gene expression,[1]; U937 and HL60 cell lines,up-regulated
same,HOXB4 and A9 gene expression,[1]; U937 and HL60 cell lines,down-regulation
same,HOXB8 gene expression,[1]; U937 and HL60 cell lines,unchanged
same,CDC25 expression,[1]; U937 cells,down-regulated
same,N-RAS oncogene expression,"[1]; all of the cell lines (KG1a, HL60, U937)",completely down-regulated
same,proportion of cells leaving phase G0-G1 and entering the cell cycle,[2],induces a significantly higher proportion of cells to leave the phase G0-G1 and enter the cell cycle
same,cell growth of AC133+ cells,"AC133+ cells; 20 μg/ml, TPOFLK supplemented liquid culture",slowing their growth; also recorded: slowed
same,AC133+ cell proliferation after withdrawal of HXP peptide,AC133+ cells; withdrawal at 7 days,started to proliferate again
same,markers of maturation/differentiation (CD38),KG1a cells,elevated
same,"markers of stem/progenitor cells (AC133, CD34, HOXB4, HOXB8 and HOXA9)",KG1a cells,diminished
